Results on 20 compounds are retold here after US11390604B2 (Hoffmann-La Roche Inc., priority 2019, dated 2022).

Counter-ions that a name gives are not always drawn.

One assay relates to Acinetobacter baumannii ATCC 17961. In words: Antimicrobial susceptibility testing: 90% growth inhibitory concentration (IC90) determination. It counts as cell-based. Conditions: ATCC17961, Acinetobacter baumannii ATCC 17961, Iso-Sensitest broth, read-out: ATCC 17961 IC90. In short, it runs like this: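 Growth was followed kinetically by OD600 at 20-min intervals for 16 h at 35±2 °C, with ~5×10^5 CFU/ml in Iso-Sensitest broth. Compounds were tested as twofold dilutions (e.g. 50–0.097 μM final). The concentration giving 90% inhibition of log-phase growth was reported.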
Usually IC90 stands for the concentration needed for an effect of 90%. Regarding `Cn1c(-c2cn(C3CCC3)nc2C(F)(F)F)cnc1C(=O)Nc1ccc(C(=O)N[C@H]2[C@@H]3CN(C(=O)C4CCNCC4)C[C@@H]32)c(Cl)c1` [Example 173, N-(3-chloro-4-(((1R,5S,6s)-3-(piperidine-4-carbonyl)-3-azabicyclo[3.1.0]hexan-6-yl)carbamoyl)phenyl)-5-(1-cyclobutyl-3-(trifluoromethyl)-1H-pyrazol-4-yl)-1-methyl-1H-imidazole-2-carboxamide formate], the concentration for an effect of 90% (IC90) is 234 nM.
As to `Cn1c(-c2cn(CC3CCC3)nc2C(F)(F)F)cnc1C(=O)Nc1ccc(C(=O)N[C@H]2[C@@H]3CN(C(=O)C4CCNCC4)C[C@@H]32)c(Cl)c1` [Example 174, N-(3-chloro-4-(((1R,5S,6s)-3-(piperidine-4-carbonyl)-3-azabicyclo[3.1.0]hexan-6-yl)carbamoyl)phenyl)-5-(1-(cyclobutylmethyl)-3-(trifluoromethyl)-1H-pyrazol-4-yl)-1-methyl-1H-imidazole-2-carboxamide formate], the IC90 was determined as 250 nM.
Still for that read-out and setting: for `Cn1c(-c2cn(CC#N)nc2C(F)(F)F)cnc1C(=O)Nc1ccc(C(=O)N[C@H]2[C@@H]3CN(C(=O)N[C@@H]4CNC[C@H]4O)C[C@@H]32)c(Cl)c1` [Example 175, (1R,5S,6s)-6-(2-chloro-4-(5-(1-(cyanomethyl)-3-(trifluoromethyl)-1H-pyrazol-4-yl)-1-methyl-1H-imidazole-2-carboxamido)benzamido)-N-(trans-4-hydroxypyrrolidin-3-yl)-3-azabicyclo[3.1.0]hexane-3-carboxamide Formate] the value was 330 nM; for `C=C(F)Cn1cc(-c2cnc(C(=O)Nc3ccc(C(=O)N[C@H]4[C@@H]5CN(C(=O)N[C@@H]6CNC[C@H]6O)C[C@@H]54)c(Cl)c3)n2C)c(C(F)(F)F)n1` [Example 176, (1R,5S,6s)-6-(2-chloro-4-(5-(1-(2-fluoroallyl)-3-(trifluoromethyl)-1H-pyrazol-4-yl)-1-methyl-1H-imidazole-2-carboxamido)benzamido)-N-(trans-4-hydroxypyrrolidin-3-yl)-3-azabicyclo[3.1.0]hexane-3-carboxamide Formate], 155 nM; for `Cn1c(-c2cn(CC(F)F)nc2C(F)(F)F)cnc1C(=O)Nc1ccc(C(=O)N[C@H]2[C@@H]3CN(C(=O)N[C@H]4C[C@@H](N)C4)C[C@@H]32)c(Cl)c1` [Example 177, (1R,5S,6s)-N-(cis-3-aminocyclobutyl)-6-(2-chloro-4-(5-(1-(2,2-difluoroethyl)-3-(trifluoromethyl)-1H-pyrazol-4-yl)-1-methyl-1H-imidazole-2-carboxamido)benzamido)-3-azabicyclo[3.1.0]hexane-3-carboxamide], 229 nM.
Still for that read-out and setting: for `Cn1c(-c2cn(C3CC3(F)F)nc2C(F)(F)F)cnc1C(=O)Nc1ccc(C(=O)NCC2(N)CC2)c(Cl)c1` (centres unmarked) [Example 178, N-(4-(((1-aminocyclopropyl)methyl)carbamoyl)-3-chlorophenyl)-5-(1-(2,2-difluorocyclopropyl)-3-(trifluoromethyl)-1H-pyrazol-4-yl)-1-methyl-H-imidazole-2-carboxamide Formate] the value was 86 nM; for `Cn1c(-c2cn([C@@H]3CC3(F)F)nc2C(F)(F)F)cnc1C(=O)Nc1ccc(C(=O)N[C@H]2[C@@H]3CN(C(=O)N[C@@H]4CNC[C@H]4O)C[C@@H]32)c(Cl)c1` [Example 181, (1S,5R)-6-[[2-chloro-4-[[5-[1-[(1R)-2,2-difluorocyclopropyl]-3-(trifluoromethyl)pyrazol-4-yl]-1-methyl-imidazole-2-carbonyl]amino]benzoyl]amino]-N-[(3R,4R)-4-hydroxypyrrolidin-3-yl]-3-azabicyclo[3.1.0]hexane-3-carboxamide; Hydrochloride], 64 nM; for `Cn1c(-c2cn([C@H]3CC3(F)F)nc2C(F)(F)F)cnc1C(=O)Nc1ccc(C(=O)N[C@H]2[C@@H]3CN(C(=O)N[C@@H]4CNC[C@H]4O)C[C@@H]32)c(Cl)c1` [Example 182, (1S,5R)-6-[[2-chloro-4-[[5-[1-[(1S)-2,2-difluorocyclopropyl]-3-(trifluoromethyl)pyrazol-4-yl]-1-methyl-imidazole-2-carbonyl]amino]benzoyl]amino]-N-[(3R,4R)-4-hydroxypyrrolidin-3-yl]-3-azabicyclo[3.1.0]hexane-3-carboxamide], 110 nM.
Same read-out and setting: the same measure for `Cn1c(-c2cn(C3CC3(F)F)nc2C(F)(F)F)cnc1C(=O)Nc1ccc(C(=O)N[C@H]2[C@@H]3CN(C(=O)N4CCNCC4)C[C@@H]32)c(Cl)c1` (stereo partly drawn) [Example 184, N-(3-chloro-4-(((1R,5S,6s)-3-(piperazine-1-carbonyl)-3-azabicyclo[3.1.0]hexan-6-yl)carbamoyl)phenyl)-5-(1-(2,2-difluorocyclopropyl)-3-(trifluoromethyl)-1H-pyrazol-4-yl)-1-methyl-1H-imidazole-2-carboxamide]: 136 nM; for `C=C(F)Cn1cc(-c2cnc(C(=O)Nc3ccc(C(=O)NCCCCCN)c(Cl)c3)n2C)c(C(F)(F)F)n1` [Example 185, N-(4-((5-aminopentyl)carbamoyl)-3-chlorophenyl)-5-(1-(2-fluoroallyl)-3-(trifluoromethyl)-1H-pyrazol-4-yl)-1-methyl-1H-imidazole-2-carboxamide hydrochloride]: 148 nM; for `Cn1c(-c2cn(C3CC3)nc2C(F)(F)F)cnc1C(=O)Nc1ccc(C(=O)NCCCCCCN)c(Cl)c1` [Example 187, N-(4-((6-aminohexyl)carbamoyl)-3-chlorophenyl)-5-(1-cyclopropyl-3-(trifluoromethyl)-1H-pyrazol-4-yl)-1-methyl-1H-imidazole-2-carboxamide hydrochloride]: 151 nM.
Regarding `Cn1c(-c2cn(CC(F)F)nc2C(F)(F)F)cnc1C(=O)Nc1ccc(S(=O)(=O)N2CCNCC2)c(Cl)c1` [Example 188, N-(3-chloro-4-(piperazin-1-ylsulfonyl)phenyl)-5-(1-(2,2-difluoroethyl)-3-(trifluoromethyl)-1H-pyrazol-4-yl)-1-methyl-1H-imidazole-2-carboxamide hydrochloride], the 90% effect concentration (IC90) worked out at 152 nM.
For the compound `CN(CCCCN)C(=O)c1ccc(NC(=O)c2ncc(-c3cn(C4CC4)nc3C(F)(F)F)n2C)cc1Cl` [Example 190, N-(4-((4-aminobutyl)(methyl)carbamoyl)-3-chlorophenyl)-5-(1-cyclopropyl-3-(trifluoromethyl)-1H-pyrazol-4-yl)-1-methyl-1H-imidazole-2-carboxamide hydrochloride], the 90% effect concentration (IC90) is 173 nM.
Same read-out and setting: the same measure for `Cn1c(-c2cn(C3CC3)nc2C(F)(F)F)cnc1C(=O)Nc1ccc(C(=O)N2CCC(CCN)CC2)c(Cl)c1` [Example 191, N-(4-(4-(2-aminoethyl)piperidine-1-carbonyl)-3-chlorophenyl)-5-(1-cyclopropyl-3-(trifluoromethyl)-1H-pyrazol-4-yl)-1-methyl-1H-imidazole-2-carboxamide formate]: 176 nM.
Same read-out and setting: the same measure for `Cn1c(-c2cn(C3CC3(F)F)nc2C(F)(F)F)cnc1C(=O)Nc1ccc(C(=O)NC2CC3(CC(N)C3)C2)c(Cl)c1` (centres unmarked) [Example 193, N-(4-((6-aminospiro[3.3]heptan-2-yl)carbamoyl)-3-chlorophenyl)-5-(1-(2,2-difluorocyclopropyl)-3-(trifluoromethyl)-1H-pyrazol-4-yl)-1-methyl-1H-imidazole-2-carboxamide formate]: 188 nM; for `Cn1c(-c2cn(CC3CC3)nc2C(F)(F)F)cnc1C(=O)Nc1ccc(C(=O)N2CCN(C(=O)[C@H]3[C@@H]4CNC[C@@H]43)CC2)c(F)c1` [Example 194, rac-N-(4-(4-((1R,5S,6r)-3-azabicyclo[3.1.0]hexane-6-carbonyl)piperazine-1-carbonyl)-3-fluorophenyl)-5-(1-(cyclopropylmethyl)-3-(trifluoromethyl)-1H-pyrazol-4-yl)-1-methyl-1H-imidazole-2-carboxamide hydrochloride]: 193 nM; for `Cn1c(-c2cn(C3CC3)nc2C(F)(F)F)cnc1C(=O)Nc1ccc(C(=O)N2CC[C@H](CN)C2)c(Cl)c1` [Example 195, (R)-N-(4-(3-(aminomethyl)pyrrolidine-1-carbonyl)-3-chlorophenyl)-5-(1-cyclopropyl-3-(trifluoromethyl)-1H-pyrazol-4-yl)-1-methyl-1H-imidazole-2-carboxamide hydrochloride]: 202 nM.
Same read-out and setting: the same measure for `Cn1c(-c2cn(C3CC3(F)F)nc2C(F)(F)F)cnc1C(=O)Nc1ccc(C(=O)NCC2CC3CNCC3C2)c(Cl)c1` (centres unmarked) [Example 196, N-(3-chloro-4-(((octahydrocyclopenta[c]pyrrol-5-yl)methyl)carbamoyl)phenyl)-5-(1-(2,2-difluorocyclopropyl)-3-(trifluoromethyl)-1H-pyrazol-4-yl)-1-methyl-1H-imidazole-2-carboxamide formate]: 202 nM.

Staying with this assay, now noted: Acinetobacter baumannii, ATCC17961, read-out: ATCC 17961 IC90, Acinetobacter baumannii ATCC 17961, Iso-Sensitest broth.
Take `Cn1c(-c2cn(CCF)nc2C(F)(F)F)cnc1C(=O)Nc1ccc(C(=O)N2CCN(C(=O)C3(O)CCCNC3)CC2)c(Cl)c1` (centres unmarked) [Example 180, N-[3-chloro-4-[4-(3-hydroxypiperidine-3-carbonyl)piperazine-1-carbonyl]phenyl]-5-[1-(2-fluoroethyl)-3-(trifluoromethyl)pyrazol-4-yl]-1-methylimidazole-2-carboxamide; Trihydrochloride]: the IC90 was found to be 397 nM.
On the same count and under the same terms, the same measure for `Cn1c(-c2cn([C@H]3CC3(F)F)nc2C(F)(F)F)cnc1C(=O)Nc1ccc(C(=O)N[C@H]2[C@@H]3CN(C(=O)N[C@H]4CNC[C@@H]4O)C[C@@H]32)c(Cl)c1` [Example 183, (1S,5R)-6-[[2-chloro-4-[[5-[1-[(1S)-2,2-difluorocyclopropyl]-3-(trifluoromethyl)pyrazol-4-yl]-1-methyl-imidazole-2-carbonyl]amino]benzoyl]amino]-N-[(3S,4S)-4-hydroxypyrrolidin-3-yl]-3-azabicyclo[3.1.0]hexane-3-carboxamide; Hydrochloride]: 170 nM.
